Here are results for six molecules from article PMC3598705, “Evaluation of Toxicity and Biodegradability of Cholinium Amino Acids Ionic Liquids” (PLoS ONE, 2013).

Where two headings read alike, the source gives them in different places.

Experiment [1] has as its target T1, AChE type VI-S (from the electric eel) (Electrophorus electricus, UniProt O42275).
T1 construct: purchased Sigma–Aldrich, USA type VI-S (catalogue number not given)
Briefly: AChE inhibition assay (colorimetric, DTNB reduction). It counts as biochemical. The note with it: DTNB 0.5 mM, AChE 0.05 U mL^−1, acetylthiocholine iodide 0.5 mM, 37 °C, phosphate buffer pH 8.0; mean ± SD; read-out: EC50±SD (toxicity toward AChE). How it is done: A colorimetric assay based on reduction of DTNB was used to measure AChE inhibition as described previously, [24], in the presence of a phosphate buffer system in order to eliminate the effects of pH changes on enzyme activity. Briefly, IL solutions were prepared with 0.2 M phosphate buffer (pH 8.0) in 96-well microtiter plates. The enzyme (0.2 U mL^−1, plus 0.25 mg mL^−1 bovine serum albumin in the same phosphate buffer), and DTNB (2 mM, plus 0.185 mg mL^−1 NaHCO3 in the same phosphate buffer) were added to each well and kept at 37 °C for 5 min, and then the reaction was initiated by adding acetylthiocholine iodide (2 mM in the same phosphate buffer). In the experimental reactions, the final concentrations of DTNB, acetylthiocholine iodide and AChE were 0.5 mM, 0.5 mM and 0.05 U mL^−1, respectively. Except where stated otherwise, the concentration range used to calculate EC50 of the [Ch][AA] ILs was 0–50 mM. However, for strongly alkaline [Ch][AA] ILs such as [Ch][Lys], the maximum concentration used was 20 mM in order to avoid changes in enzyme activity due to pH changes that would be caused if the IL exceeded the buffering capacity of the phosphate buffer. Acidic amino acid-derived ILs ([Ch][Asp] and [Ch][Glu]) were used up to 80 mM. The control compounds cholinium chloride ([Ch][Cl]), [Bmim][BF4] and acetone were used at concentration ranges of 0–80 mM, 0–50 mM and 10 mM–2.5 M, respectively. Control experiments without enzyme were carried out under otherwise identical conditions. Reduction of DTNB was monitored at 405 nm and at 10 second intervals in a microplate reader (Wallac 1420 VICTOR3, PerkinElmer, Singapore) over a period of 5 min. Enzyme activity was expressed as ΔOD min^−1 obtained via linear regression analysis. All assays were performed at least in triplicate.
All data were analyzed by One-Way analysis of variance using SPSS 11.5 (SPSS Inc., USA). EC50 values are presented as mean ± standard deviation (SD) from at least three repeats, and confidence intervals (α = 0.05) of EC50 are also presented. The One-Way ANOVA was used to judge if the difference between the different ILs groups was significant. When the p value was<0.05, the difference was considered to be significant.

The next experiment concerns E. coli ATCC 8739. Briefly: Antimicrobial activity, tube dilution method. It counts as cell-based, Escherichia coli. The note with it: four repeated experiments. How it is done:
(§1) Antimicrobial activity was measured via the tube dilution method as described previously. Briefly, E. coli, S. aureus, S. enteritidis and L. monocytogenes were cultured in Mueller-Hinton broth for 24 h at 37 °C. A microorganism suspension of 10^6 cfu mL^−1 (cfu, colony forming units) was prepared from each culture. IL solutions (31.3–1500 mM) were prepared with sterilized Mueller-Hinton broth, and then were sterilized by filtration (0.45 µm pore-diameter membrane). The various permutations of microorganism suspension (50 µL) and IL solution (50 µL) were mixed in 96-well microtiter plate. Growth of the microorganisms was determined visually after incubation for 24 h at 37 °C. Controls were conducted under the same conditions: negative controls without microorganisms and positive controls without ILs. The lowest concentration at which there was no visible growth (turbidity) was taken as the minimal inhibitory concentration (MIC). Samples of 20 µL from each well were spread onto Mueller-Hinton agar medium with inactivates (0.3% lecithin, 3% polysorbate 80 and 0.1% L-cysteine) and incubated for 48 h at 37 °C. The lowest concentration of the IL that killed 99.9% or more of the test bacterium was taken as the minimum biocidal concentration (MBC).

In experiment [2] the test system is S. enteritidis ATCC 14128. Description: Antimicrobial activity, tube dilution method. To be noted: four repeated experiments; for MIC: 24 h at 37 °C; for MBC: kills 99.9% or more. The format is cell-based, Salmonella enteritidis. How it is done: as §1
Experiment [3] deals with L. monocytogenes ATCC 19115. Briefly: Antimicrobial activity, tube dilution method. It counts as cell-based, Listeria monocytogenes. To be noted: four repeated experiments. On the procedure: as §1
Another experiment relates to S. aureus ATCC 29213. Briefly: Antimicrobial activity, tube dilution method. The format is cell-based, Staphylococcus aureus. To be noted: four repeated experiments. How it is done:
as §1

T1 sequence (O42275 24-633): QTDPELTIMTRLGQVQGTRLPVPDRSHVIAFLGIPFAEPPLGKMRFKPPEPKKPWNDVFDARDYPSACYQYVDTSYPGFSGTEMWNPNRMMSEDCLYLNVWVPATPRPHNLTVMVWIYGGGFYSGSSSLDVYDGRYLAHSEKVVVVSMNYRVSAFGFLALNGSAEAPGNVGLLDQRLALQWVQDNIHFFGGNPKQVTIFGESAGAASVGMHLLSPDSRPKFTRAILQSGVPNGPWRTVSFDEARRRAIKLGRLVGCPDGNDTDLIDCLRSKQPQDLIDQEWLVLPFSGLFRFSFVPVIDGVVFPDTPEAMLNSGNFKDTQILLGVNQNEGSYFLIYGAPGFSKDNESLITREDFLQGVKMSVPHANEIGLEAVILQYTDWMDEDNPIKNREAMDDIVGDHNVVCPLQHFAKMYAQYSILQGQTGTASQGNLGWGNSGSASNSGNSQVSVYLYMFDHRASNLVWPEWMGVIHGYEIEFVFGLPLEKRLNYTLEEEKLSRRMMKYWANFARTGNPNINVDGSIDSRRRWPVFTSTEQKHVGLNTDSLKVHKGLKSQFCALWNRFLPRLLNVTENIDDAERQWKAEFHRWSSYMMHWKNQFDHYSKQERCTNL

For `C[N+](C)(C)CCO.N=C(N)NCCC[C@H](N)C(=O)[O-]` [[Ch][Arg]], the half-maximal effective concentration (EC50) in experiment [1] worked out at 3.67 ± 0.07 mM. Further, the minimal inhibitory concentration (MIC) in the experiment with E. coli ATCC 8739 (24 h at 37 °C) amounted to 46.9 mM; in experiment [2], 46.9 mM; in experiment [3] (24 h at 37 °C), 93.8 mM; with S. aureus ATCC 29213 (24 h at 37 °C), 93.8 mM. The MBC in the experiment with E. coli ATCC 8739 (kills 99.9% or more) came out at 93.8 mM; in experiment [2], 62.5 mM; in experiment [3] (kills 99.9% or more), 125 mM; in the experiment on S. aureus ATCC 29213 (kills 99.9% or more), 125 mM.
With `C[N+](C)(C)CCO.NCCCC[C@H](N)C(=O)[O-]` [[Ch][Lys]], in experiment [1], the concentration for a half-maximal effect (EC50) came out at 3.48 ± 0.13 mM. For the same molecule, the minimum inhibitory concentration (MIC) in the experiment on E. coli ATCC 8739 (24 h at 37 °C) was determined as 31.3 mM; in experiment [2] it was 31.3 mM; in experiment [3] (24 h at 37 °C), 62.5 mM; against S. aureus ATCC 29213 (24 h at 37 °C), 62.5 mM. In addition, the minimal bactericidal concentration (MBC) against E. coli ATCC 8739 (kills 99.9% or more) is reported as 46.9 mM; in experiment [3] (kills 99.9% or more), 93.8 mM; against S. aureus ATCC 29213 (kills 99.9% or more), 93.8 mM.
For `C[N+](C)(C)CCO.N[C@@H](Cc1ccccc1)C(=O)[O-]` [[Ch][Phe]], the half-maximal effective concentration (EC50) in experiment [1] came out at 2.74 ± 0.1 mM. Also, the MIC against E. coli ATCC 8739 (24 h at 37 °C) was found to be 31.3 mM; in experiment [2] it was 31.3 mM; in experiment [3] (24 h at 37 °C), 46.9 mM; against S. aureus ATCC 29213 (24 h at 37 °C), 62.5 mM. For the same molecule, the minimal bactericidal concentration (MBC) in the experiment on E. coli ATCC 8739 (kills 99.9% or more) came out at 46.9 mM; in experiment [2] it was 46.9 mM; in experiment [3] (kills 99.9% or more), 62.5 mM; in the experiment with S. aureus ATCC 29213 (kills 99.9% or more), 93.8 mM.
As for `CCC(C)C(N)C(=O)[O-].C[N+](C)(C)CCO` (centres unmarked) [[Ch][Ile]], in experiment [1], the EC50 worked out at 3.57 ± 0.07 mM. Besides, the MIC against E. coli ATCC 8739 (24 h at 37 °C) turned out to be 46.9 mM; in experiment [2] it was 46.9 mM; in experiment [3] (24 h at 37 °C), 46.9 mM; in the experiment with S. aureus ATCC 29213 (24 h at 37 °C), 93.8 mM. Moreover, the minimal bactericidal concentration (MBC) with E. coli ATCC 8739 (kills 99.9% or more) worked out at 62.5 mM; in experiment [2], 62.5 mM; in experiment [3] (kills 99.9% or more), 62.5 mM; against S. aureus ATCC 29213 (kills 99.9% or more), 125 mM.
Take `CCCCn1cc[n+](C)c1` [[Bmim][BF4], 1-Butyl-3-methylimidazolium tetrafluoroborate, reference compound]: in experiment [1], the concentration giving a half-maximal response (EC50) amounted to 0.33 ± 0.01 mM. The minimum inhibitory concentration (MIC) in the experiment on E. coli ATCC 8739 (Escherichia coli, ATCC8739, 24 h at 37 °C, read-out: MIC) worked out at 2.3 mM; in experiment [2] (Salmonella enterica, read-out: MIC), 2.3 mM; in experiment [3] (Listeria monocytogenes, ATCC19115, 24 h at 37 °C, read-out: MIC), 2.3 mM; with S. aureus ATCC 29213 (Staphylococcus aureus, ATCC29213, 24 h at 37 °C, read-out: MIC) it was 2.3 mM. Besides, the MBC with E. coli ATCC 8739 (Escherichia coli, ATCC8739, kills 99.9% or more, read-out: MBC) was 4.6 mM; in experiment [2] (Salmonella enterica, read-out: MBC), 2.3 mM; in experiment [3] (Listeria monocytogenes, ATCC19115, kills 99.9% or more, read-out: MBC) it was 4.6 mM; in the experiment on S. aureus ATCC 29213 (Staphylococcus aureus, ATCC29213, kills 99.9% or more, read-out: MBC), 4.6 mM.
Consider `CC(C)C[C@H](N)C(=O)[O-].C[N+](C)(C)CCO` [[Ch][Leu]], for which, in experiment [1], the EC50 was determined as 3.36 ± 0.05 mM. For the same molecule, the MIC in the experiment with E. coli ATCC 8739 (24 h at 37 °C) came out at 46.9 mM; in experiment [2], 46.9 mM; in experiment [3] (24 h at 37 °C), 46.9 mM; against S. aureus ATCC 29213 (24 h at 37 °C), 93.8 mM. The MBC against E. coli ATCC 8739 (kills 99.9% or more) came to 62.5 mM; in experiment [2], 62.5 mM; in experiment [3] (kills 99.9% or more) it was 62.5 mM; with S. aureus ATCC 29213 (kills 99.9% or more), 125 mM.

The term EC50 denotes the concentration that produces a half-maximal response. As usually defined, the MIC is the lowest concentration found to suppress growth. The term MBC denotes the lowest tested concentration that kills the bacteria rather than only halting them.
